Test results published in article PMC4660440 (Scientific Reports, 2015).
Where two headings read alike, the source gives them in different places.

Columns and labels:
HeLa cells [1] = assay: Cell cycle analysis by flow cytometry (PI); format: cell-based; conditions: for Effect on HeLa cell cycle: 0.1, 1.0, 5.0 μM, 6, 12, 24, 48 h; for Ratio of cell cycle arrest (of total cells) / Percentage of cell cycle arrest (right peak of histogram) / Total cell cycle arrest percentage (right peak of histogram): HeLa; for Ratio of cell cycle arrest (of total cells): 0.1 μM, 6, 12, 24 and 48 h; for Percentage of cell cycle arrest (right peak of histogram) / Total cell cycle arrest percentage (right peak of histogram): 5.0 μM; for Percentage of cell cycle arrest (right peak of histogram): 12 h; for Total cell cycle arrest percentage (right peak of histogram): 48 h
Description: The HeLa cell line was used for cell cycle analysis. Progression through the cell cycle was assessed by flow cytometry DNA determination with Propidium Iodide (PI). […] Flow cytometric analysis was performed using a BD accur C6 flow cytometer. Analysis was with Mod FIT software.

tubulin = assay: Tubulin assembly centrifugation assay in vitro; format: biochemical; conditions: for Inhibition of microtubule polymerization compared with colchicine: colchicine as positive control
Description: Ligands were dissolved in DMSO at 20 mM and kept at −80 °C. Work solutions were done in DMSO and kept at −20 °C. The 50% inhibitory ligand concentration of tubulin assembly was determined with a centrifugation assay. Tubulin was equilibrated prior to use in 3.4 M glycerol, 1 mM EGTA, 0.1 mM GTP, pH 7.0, buffer through a 25 cm × 0.9 cm Sephadex G-25 column. Aggregates were removed by a centrifugation at 90000 g × 10 min in a TLA 120 rotor at 4 °C in an Optima TLX centrifuge. Tubulin concentration was determined as described by Andreu^42. Tubulin was kept at 4 °C, and 0.9 mM GTP and 6 mM MgCl2 were added to the sample. The solution was distributed in 200 μL polycarbonate tubes for the TL100 rotor. Growing concentrations of the ligands ranging from 0 to 25 μM were added to the samples (DMSO content of the samples, 2.5%), which were incubated for 30 min at 37 °C. Microtubules were separated from unassembled tubulin by a centrifugation at 90000 g × 10 min in a TLA100 rotor at 37 °C in an Optima TLX centrifuge. The supernatant containing unassembled tubulin was carefully collected and the microtubule pellet resuspended in 10 mM sodium phosphate buffer, pH 7.0, containing 1% SDS. Both supernatants and pellets were diluted 1:5 in the same buffer, and tubulin concentrations were measured fluorometrically (λexc = 280; λems = 323) using tubulin standards calibrated spectrophotometrically. The 50% inhibitory ligand concentration of tubulin assembly was determined with a centrifugation assay that measured the decrease in the concentrations of microtubules assembled in the presence of different concentrations of the compound.

HL-7702 = assay: MTT cytotoxicity assay, normal hepatic cell line HL-7702; format: cell-based; conditions: human normal hepatic immortal cell line, drug exposure 48 h, mean ± SD (n = 3), read-out: Cytotoxic activity (IC50) HL-7702
Description: (§1) HeLa, BGC823, A-549, MCF-7 and HT-7702 cell lines were obtained from the ATCC. […] Tumor cells (3500–13,000) were seeded into 96-well microtest plates in 100 μL of culture medium per well, incubated for 48 h in the presence or absence of test compounds (8 different concentrations ranging from 100 to 0.01 μg/mL). For quantitative estimation of cytotoxicity, the (MTT) method was used, essentially performed as described previously. Briefly, cells were washed twice with PBS, fixed for 15 min in 1% glutaraldehyde solution, rinsed twice in PBS, and stained in 0.5% MTT solution for 4 h at 37 °C. […] The initial seeding densities varied among the cell lines to ensure a final absorbance reading in control (untreated) cultures within the range of 0.6–0.8 A492 units. Drug exposure was carried out for 2 days, and the IC50 value, i.e., the drug concentration that decreased the absorbance by 50%, was extrapolated from dose-response data. Each test was performed in triplicate, and the absorbance readings between the triplicates varied by no more than 10%.

HeLa = assay: MTT cytotoxicity assay, HeLa; format: cell-based; conditions: drug exposure 48 h, mean ± SD (n = 3), read-out: Cytotoxic activity (IC50) HeLa
Description: as §1

HeLa cells [2] = assay: Annexin V-FITC/PI apoptosis assay; conditions: 0.1 μM, 6, 12, 24 and 48 h
Description: The HeLa cell line was used for cell apoptosis. Cells (20000 per mL) were incubated with several concentrations of the compounds or drugs for 6–48 h, and incubated in DMEM medium supplemented with 12% fetal calf serum (FCS), 2 mM L -glutamine, and 100 mg/L penicillin G and 100 mg/L streptomycin at 37 °C and 5% CO2. The cells were washed with PBS twice, centrifuged at 206 g for 5 min, and 5–10[5] cells were collected. Binding buffer suspension (500 μL) was added to the cells, and then 5 μL of the FITC-Annexin V mix was added. Next, 10 μL of the PI mix was added, and the suspension was mixed and kept at room temperature for 30 min in the dark. Analysis was with a BD accur C6 flow cytometer.

BGC-823 = assay: MTT cytotoxicity assay, BGC-823; format: cell-based; conditions: mean ± SD (n = 3), read-out: Cytotoxic activity (IC50) BGC-823
Description: as §1

[3] = tested on: microtubules in HeLa cells; assay: Immunofluorescence of cellular microtubules; format: cell-based; conditions: for Cellular depolymerization of microtubules: 12 and 24 h, compared with negative control 0.1% DMSO; for Appearance of microtubules after treatment: immunofluorescence
Description: Cells (20000 per mL) were plated a onto 6-well tissue culture plates containing 12 mm round coverslips, cultured overnight, and then treated with different drugs at […] concentrations or drug vehicle (0.1% DMSO) for 12 h and 24 h. Attached cells were permeabilized. Cytoskeletons were incubated with α-tubulin, washed twice, and incubated with FITC goat anti-mouse immunoglobulins. The coverslips were washed, and 1 μg/mL DAPI to stain chromatin was added. The mixture was incubated for 30 min. After the samples were washed, they were examined and photographed using an Olympus epifluorescence microscope. The images were recorded with a Perkin Elmer camera.

[4] = tested on: BimEL, ATR, caspase 3, caspase 8, caspase 9, PARP in HeLa cells; assay: Western blot analysis of apoptosis proteins; format: cell-based; conditions: 24 h treatment; for Extent of compound-induced BimEL / Extent of compound-induced PARP / Extent of compound-induced caspase 3 / Extent of compound-induced caspase 9 / Extent of compound-induced ATR: 5 μM, untreated control 0%, etoposide-induced activation 100%
Description: For electrophoresis, the proteins were separated by sodium dodecyl sulfate–polyacrylamide gel electro-phoresis (SDS–PAGE). The proteins were then transferred to a nitrocellulose membrane, which was blocked with 5% skimmed milk in phosphate buffered saline Tween-20 (PBST). A specific primary antibody was added to bind the target proteins for either 1 h at room temperature or overnight at 4 °C. A horseradish peroxidase (HRP) conjugated secondary antibody was added to the membrane after the primary antibody was washed off. All signals were detected after the HRP was activated by enhanced chemiluminescence. The band intensities of Western results were quantitated with the Image Quant program (Molecular Dynamics Inc.), analyzed and graphed. The untreated controls and the etoposideinduced activation of signaling molecules were taken as 0% and 100%, respectively. Statistic analysis was performed with the uni-polar, paired Student t-test. Data were considered significant when P value was less than 0.05.

MCF-7 = assay: MTT cytotoxicity assay, MCF-7; format: cell-based; conditions: mean ± SD (n = 3), read-out: Cytotoxic activity (IC50) MCF-7
Description: as §1

A549 = assay: MTT cytotoxicity assay, A549; format: cell-based; conditions: mean ± SD (n = 3), read-out: Cytotoxic activity (IC50) A549
Description: as §1

[5] = MTT cytotoxicity assay, normal hepatic cell line HL-7702; format: cell-based; conditions: HL-7702 normal hepatic cells, human normal hepatic immortal cell line, drug exposure 48 h, mean ± SD (n = 3), read-out: Cytotoxic activity (IC50) HL-7702
Description: as §1

topoisomerase II = assay: kDNA decatenation assay; format: biochemical; conditions: 100 μM
Description: The decatenation of kDNA was assayed according to TopoGen protocol in order to determine topoisomerase II activity. The substrate kDNA (200 ng) and 100 μM drugs were combined in assay buffer and incubated for 10 min on ice. Next, 1 U of topoisomerase II was added and the reaction was allowed to proceed for 15 min at 37 °C. The reaction was quenched via the addition of loading buffer (1% sarkosyl, 0.025% bromophenol blue, and 5% glycerol) and was then analyzed by electrophoresis on a 1% agarose gel in TBE buffer for 30 min at 130 V. The gel was stained with SYBR Green I (Molecular Probes) for 30 min and was visualized under UV illumination and photographed on a Tanon Imager.

[6] = Homo sapiens, BGC-823, drug exposure 48 h
[7] = Homo sapiens, MCF7, drug exposure 48 h
[8] = Homo sapiens, A549, drug exposure 48 h

SMILES	Effect on HeLa cell cycle (HeLa cells [1])	Ratio of cell cycle arrest (of total cells) (HeLa cells [1])	Total cell cycle arrest percentage (right peak of histogram) (HeLa cells [1])	Ratio of apoptotic Hela cells (of total cells) (HeLa cells [2])	Cellular depolymerization of microtubules [3]	IC50 at 48 h [5]	IC50 (HeLa; Homo sapiens, HeLa, 48 h)	IC50 (BGC-823; [6])	IC50 (MCF-7; [7])	IC50 (A549; [8])	Extent of compound-induced PARP [4]	Extent of compound-induced caspase 3 [4]	Extent of compound-induced caspase 9 [4]	other results
COc1ccc(NC2c3cc4c(cc3C(c3cc(OC)c(OC)c(OC)c3)C3C(=O)OCC23)OCO4)cc1F (stereo not drawn) [Compound 19, 4β-NH-(3-fluoro-4-methoxyaniline)-4-deoxy-podophyllotoxin]	arrested at the G2/M phase	less than 10%	96.2%	less than 15%	able to cause cellular depolymerization of microtubules	–	–	–	–	–	–	–	–	Percentage of cell cycle arrest (right peak of histogram) (HeLa cells [1]): 83.0%; GI50 (tubulin; centrifugation assay, ligand 0 to 25 μM, 30 min at 37 °C, read-out: GI50, inhibition of microtubule polymerization (tubulin assembly)): < 1 µM; Inhibition of microtubule polymerization compared with colchicine (tubulin): effects higher than colchicine; IC50 (HL-7702): 55.4 ± 0.64 µM; IC50 (HeLa): 0.72 ± 0.08 µM; IC50 (BGC-823; drug exposure 48 h): 1.61 ± 0.11 µM; Appearance of microtubules after treatment [3]: greatly disrupted and disappeared; BimEL level (pro-apoptotic protein) [4]: significantly increased; IC50 (MCF-7; drug exposure 48 h): 2.01 ± 0.21 µM; IC50 (A549; drug exposure 48 h): 1.76 ± 0.07 µM
COc1ccc(N[C@@H]2c3cc4c(cc3[C@@H](c3cc(OC)c(O)c(OC)c3)[C@H]3C(=O)OC[C@@H]32)OCO4)cc1 [Compound 12′]	arrested at the G2/M phase	less than 10%	–	less than 15%	–	28.6 ± 2.35 µM	24.46 ± 0.16 µM	36 ± 3.21 µM	18.8 ± 0.24 µM	22.3 ± 1.21 µM	–	–	–	–
COc1ccc(N[C@@H]2c3cc4c(cc3[C@@H](c3cc(OC)c(OC)c(OC)c3)[C@H]3C(=O)OC[C@@H]32)OCO4)cc1Cl [Compound 18, 4β-NH-(3-chloride-4-methoxyaniline)-4-deoxy-podophyllotoxin]	arrested at the G2/M phase	less than 10%	94.4%	less than 15%	able to cause cellular depolymerization of microtubules	79 ± 2.33 µM	–	3.52 ± 0.23 µM	3.54 ± 0.14 µM	3.72 ± 0.29 µM	84%	56%	50%	Inhibition of microtubule polymerization compared with colchicine (tubulin): effects higher than colchicine; Appearance of microtubules after treatment [3]: greatly disrupted and disappeared; Extent of compound-induced BimEL [4]: 58%; BimEL level (pro-apoptotic protein) [4]: significantly increased
COc1ccc(N[C@@H]2c3cc4c(cc3[C@@H](c3cc(OC)c(O)c(OC)c3)[C@H]3C(=O)OC[C@@H]32)OCO4)cc1Br [Compound 17′, 4β-NH-(3-bromide-4-methoxyaniline)-4-deoxy-4′-demethylepipodophyllotoxin]	arrested at the G2/M phase	–	–	–	–	91.8 ± 1.57 µM	–	5.63 ± 0.12 µM	6.51 ± 0.37 µM	–	52%	43%	34%	Inhibition of the catalytic activity of Topo II (kDNA decatenation) (topoisomerase II): completely inhibited; Extent of compound-induced ATR [4]: 26%
COc1ccc(N[C@@H]2c3cc4c(cc3[C@@H](c3cc(OC)c(O)c(OC)c3)[C@H]3C(=O)OC[C@@H]32)OCO4)cc1Cl [Compound 18′, 4β-NH-(3-chloride-4-methoxyaniline)-4-deoxy-4′-demethylepipodophyllotoxin]	arrested at the G2/M phase	less than 10%	–	less than 15%	–	127.4 ± 0.46 µM	1.97 ± 0.16 µM	1.77 ± 0.23 µM	3.18 ± 0.51 µM	3.04 ± 0.23 µM	54%	69%	35%	Extent of compound-induced ATR [4]: 46%
COc1ccc(N[C@@H]2c3cc4c(cc3[C@@H](c3cc(OC)c(O)c(OC)c3)[C@H]3C(=O)OC[C@@H]32)OCO4)cc1F [Compound 19′, 4β-NH-(3-fluoro-4-methoxyaniline)-4-deoxy-4′-demethylepipodophyllotoxin]	arrested at the G2/M phase	less than 10%	–	less than 15%	–	188 ± 7.33 µM	0.56 ± 0.12 µM	0.4 ± 0.07 µM	1.32 ± 0.24 µM	1.2 ± 0.25 µM	–	–	–	Percentage of cell cycle arrest (right peak of histogram) (HeLa cells [1]): 84.9%
COc1ccc(N[C@@H]2c3cc4c(cc3[C@@H](c3cc(OC)c(OC)c(OC)c3)[C@H]3C(=O)OC[C@@H]32)OCO4)cc1Br [Compound 17, 4β-NH-(3-bromide-4-methoxyaniline)-4-deoxy-podophyllotoxin]	arrested at the G2/M phase	less than 10%	86.5%	less than 15%	able to cause cellular depolymerization of microtubules	62.4 ± 1.96 µM	–	7.91 ± 0.59 µM	10.1 ± 0.18 µM	9.08 ± 0.26 µM	27%	37%	0%	Extent of compound-induced BimEL [4]: 15%
